# Measurements from patent US8338401B2, “Coumarin-amide derivatives and its preparation, said drug composition and its use” (Institute of Materia Medica Chinese Academy of Medical …, priority 2002, dated 2012).
# Entries after “also recorded” stand apart in the source; their conditions may differ. Where two headings read alike, the source gives them in different places.
# Assays:
# [1] = system: chronic renal failure induced by 5/6 nephrectomy in rats; format: in vivo, Male Wistar rats
# Procedure: The model on chronic renal failure induced by partial renal ablation in rats was set up according to the Guidelines of Pre-clinic Research for New Drugs. Male Wistar rats with initial body weights of 200 g, anesthetized with 35 mg/kg of pentobarbital i.p., the right kidney was removed, and the upper and lower pole […] of the left kidney were resected, stop bleeding, closed the abdominal and sutured. Four weeks following surgery, the BUN, creatinine and urinary protein in rats were determined. […] Rats were randomly divided into seven groups, 30/group, with sham, model, Benazepril (4 mg/kg/day) and Losartan (10 mg/kg/day) as positive control, and compound 149 groups (7.5 mg/kg/day, 15 mg/kg/day and 30 mg/kg/day, respectively). All the groups were administered intragastrically, once per day and 6 (six) times per week, till 16 weeks post surgery. Body weights were weighed to observe the growth of the rats. The above indexes were determined every 4 weeks up to the 16th week following the initiation of drug administration, and at each time, a number of animals were sacrificed and the kidneys were harvested for pathological analysis. Pathological lesions in chronic renal failure models are mainly glomerulosclerosis and interstitial fibrosis. According to the damage extents, glomerulosclerosis is divided into five grades (0 IV). 0 grade means no glomerulus pathological changes at all, and IV grade means ultimately glomerular sclerosis and glassy pathological changes.
# [2] = system: kidney tubulointerstitial fibrosis caused by unilateral ureteral obstruction (UUO) in rats; assay: Inhibition of kidney tubulointerstitial fibrosis caused by unilateral ureteral obstruction (UUO) in rats; format: in vivo, Male Wistar rats; conditions: for BUN / Scr. (serum creatinine): oral for 16 days
# Procedure: Male Wistar rats with initial body weights of 180˜230 g were used. Unilateral ureteral obstruction was performed under pentobarbital anesthesia (35 mg/kg) and sterile conditions. Via a midline incision, the left ureteral was ligated. Sham surgery was performed by making a midline incision but leaving ureteral intact. Following surgery, rats were randomly divided into sham, model, Benazepril (4 mg/kg/day) and Losartan (10 mg/kg/day) as positive control, and compound 149 (5 mg/kg/day, 10 mg/kg/day and 20 mg/kg/day). Starting 2 day before surgery, Benazepril, Losartan and compound 149 were administered for 16 days orally. BUN and creatinine in serum were determined in the 11th and 16th day (Table 6) following initiation of Benazepril, Losartan and compound 149 treatment, at which time animals were killed and the kidneys were harvested. Tissues were dissected, weighed, fixed in 10% formaldehyde and embedded in paraffin wax for pathological analysis.
# [3] = Primary acute toxicity test; format: in vivo; conditions: mice
# Procedure: 5 g/kg and 10 g/kg of compound 149 were administered orally to mice once and observed for 14 days. Body weights of 48 hours after administration in mice were no different. At 14th day after administration, the mouse average body weights in 5 g/kg and 10 g/kg groups increased 7 g and 5 g respectively. There was no any other different for every animal and no death were observed.
# [4] = system: Salmonella typhimurium TA97, TA98, TA100 and TA102; assay: Ames test; format: cell-based; conditions: 0.5-5000.0 μg/plate, presence or absence of S9
# Procedure: His^− type Salmonella typhimurium TA97, TA98, TA100 and TA102 were employed. Concentration of the test compound was 0.5, 5.0, 50.0, 500.0, 5000.0 μg/plate. S9 was the microsome component of liver homogenate of a rat weighted 200 g. The test compound 149 was tested in the presence or absence of S9.
# According to the Salmonella typhimurium/mammalian microsome enzyme mutagenic test method revised by Ames (1983), metabolism activated or non-metabolism activated plate incorporation assay was conducted on compound 149, and the strain which passed the assay was seeded to the culture medium and incubated at 37° C. under shaking for 15 hours. 100 μl compound solutions with various concentrations were added to 0.1 ml of the culture liquid, and then S9 mixture or phosphate buffer was added, and the mixtures were incubated in a 37° C. water bath for 20 minutes. After that, 2 ml of upper layer agar was added, mixed well and poured into a plate with lower layer agar and incubated at 37° C. for 48 hours. The number of the colonies in each plate was counted.
# [5] = 8th week after administration (12 weeks after nephrectomy), 7.5 mg/kg
# [6] = 8th week after administration (12 weeks after nephrectomy), 15 mg/kg
# [7] = 8th week after administration (12 weeks after nephrectomy), 30 mg/kg
# [8] = 8th week after administration (12 wk after nephrectomy), 7.5 mg/kg
# [9] = 8th week after administration (12 wk after nephrectomy), 15 mg/kg
# [10] = 8th week after administration (12 wk after nephrectomy), 30 mg/kg
# [11] = 12th week after administration (16 weeks after nephrectomy), 7.5 mg/kg
# [12] = 12th week after administration (16 weeks after nephrectomy), 15 mg/kg
# [13] = 12th week after administration (16 weeks after nephrectomy), 30 mg/kg
# [14] = 12th week after administration (16 wk after nephrectomy), 7.5 mg/kg
# [15] = 12th week after administration (16 wk after nephrectomy), 15 mg/kg
# [16] = 12th week after administration (16 wk after nephrectomy), 30 mg/kg
compound,measurement,setting,value
"Cc1c(O)c([N+](=O)[O-])cc2cc(C(=O)Nc3ccc(O)c(C(=O)O)c3)c(=O)oc12 [Compound 149, 3-(3′-carboxy-4′-hydroxy-phenylamidocarbonyl)-6-nitro-7-hydroxy-8-methyl-coumarin]","various parameters (BUN, Cre, TGF-β1, Ang II) compared with the positive controls Benazepril and Losartan",[1]; 5/6 nephrectomy rats,all better than those of the Benazepril group and are equivalent to those of the Losartan group
same,BUN,[1]; [5],22.35 ± 3.120 mg/dL
same,serum creatinine (Scr.),[1]; [5],2.14 ± 0.500 mg/dL
same,BUN,[1]; [6],26.04 ± 4.234 mg/dL
same,serum creatinine (Scr.),[1]; [6],1.80 ± 0.550 mg/dL
same,BUN,[1]; [7],30.54 ± 11.697 mg/dL
same,serum creatinine (Scr.),[1]; [7],1.89 ± 0.184 mg/dL
same,AII (Angiotensin II),[1]; [8],63.9 ± 13.2 pg/mL
same,UP (urinary protein),[1]; [8],30.1 ± 16.6 mg/day
same,serum TGF-β1,[1]; [8],20.0 ± 6.7 ng/mL
same,AII (Angiotensin II),[1]; [9],49.9 ± 21.3 pg/mL
same,UP (urinary protein),[1]; [9],30.4 ± 16.2 mg/day
same,serum TGF-β1,[1]; [9],18.6 ± 12.2 ng/mL
same,AII (Angiotensin II),[1]; [10],41.0 ± 12.5 pg/mL
same,UP (urinary protein),[1]; [10],34.3 ± 12.1 mg/day
same,serum TGF-β1,[1]; [10],18.9 ± 10.1 ng/mL
same,Glomerulosclerosis Grade (%): 0,"[1]; 8 wk after ad., 7.5 mg/kg",15.7 ± 19.0%
same,Glomerulosclerosis Grade (%): I,"[1]; 8 wk after ad., 7.5 mg/kg",24.0 ± 21.1%
same,Glomerulosclerosis Grade (%): II,"[1]; 8 wk after ad., 7.5 mg/kg",30.0 ± 20.8%
same,Glomerulosclerosis Grade (%): III,"[1]; 8 wk after ad., 7.5 mg/kg",23.2 ± 28.5%
same,Glomerulosclerosis Grade (%): IV,"[1]; 8 wk after ad., 7.5 mg/kg",8.0 ± 13.0%
same,Glomerulosclerosis Total Grade,"[1]; 8 wk after ad., 7.5 mg/kg",5.7 ± 2.9
same,Glomerulosclerosis Grade (%): 0,"[1]; 8 wk after ad., 15 mg/kg",37.5 ± 29.3 %
same,Glomerulosclerosis Grade (%): I,"[1]; 8 wk after ad., 15 mg/kg",27.5 ± 16.3%
same,Glomerulosclerosis Grade (%): II,"[1]; 8 wk after ad., 15 mg/kg",18.8 ± 9.9%
same,Glomerulosclerosis Grade (%): III,"[1]; 8 wk after ad., 15 mg/kg",13.3 ± 20.7%
same,Glomerulosclerosis Grade (%): IV,"[1]; 8 wk after ad., 15 mg/kg",2.9 ± 8.2%
same,Glomerulosclerosis Total Grade,"[1]; 8 wk after ad., 15 mg/kg",3.9 ± 1.7
same,Glomerulosclerosis Grade (%): 0,"[1]; 8 wk after ad., 30 mg/kg",28.3 ± 20.8%
same,Glomerulosclerosis Grade (%): I,"[1]; 8 wk after ad., 30 mg/kg",34.2 ± 23.0%
same,Glomerulosclerosis Grade (%): II,"[1]; 8 wk after ad., 30 mg/kg",7.5 ± 8.8 %
same,Glomerulosclerosis Grade (%): III,"[1]; 8 wk after ad., 30 mg/kg",17.5 ± 30.7%
same,Glomerulosclerosis Grade (%): IV,"[1]; 8 wk after ad., 30 mg/kg",6.7 ± 13.4%
same,Glomerulosclerosis Total Grade,"[1]; 8 wk after ad., 30 mg/kg",4.9 ± 3.5
same,BUN,[1]; [11],39.42 ± 4.686 mg/dL
same,serum creatinine (Scr.),[1]; [11],2.73 ± 0.78 mg/dL
same,BUN,[1]; [12],37.32 ± 5.467 mg/dL
same,serum creatinine (Scr.),[1]; [12],2.63 ± 0.38 mg/dL
same,BUN,[1]; [13],36.60 ± 5.422 mg/dL
same,serum creatinine (Scr.),[1]; [13],2.10 ± 0.71 mg/dL
same,AII (Angiotensin II),[1]; [14],48.3 ± 48.5 pg/mL
same,UP (urinary protein),[1]; [14],66.7 ± 38.8 mg/day
same,serum TGF-β1,[1]; [14],13.6 ± 7.1 ng/mL
same,AII (Angiotensin II),[1]; [15],41.3 ± 28.4 pg/mL
same,UP (urinary protein),[1]; [15],52.3 ± 34.4 mg/day
same,serum TGF-β1,[1]; [15],12.3 ± 7.7 ng/mL
same,AII (Angiotensin II),[1]; [16],19.2 ± 9.19 pg/mL
same,UP (urinary protein),[1]; [16],48.2 ± 31.6 mg/day
same,serum TGF-β1,[1]; [16],11.6 ± 6.7 ng/mL
same,"Glomerulus pathological scores, compared with the model group","[1]; 12 weeks after nephrectomy (8 weeks since administration), compound 149 30 mg/kg, Losartan 10 mg/kg/day",less than that of the model group significantly
same,"rates of 0 grade glomerylus in residual kidney, compared with the model group","[1]; 12 weeks after nephrectomy (8 weeks since administration), compound 149 30 mg/kg, Losartan 10 mg/kg/day, P<0.05",higher than that of the model group with significant difference
same,Glomerulosclerosis Grade (%): 0,"[1]; 12 wk after ad., 7.5 mg/kg",0%
same,Glomerulosclerosis Grade (%): I,"[1]; 12 wk after ad., 7.5 mg/kg",2.3 ± 6.3%
same,Glomerulosclerosis Grade (%): II,"[1]; 12 wk after ad., 7.5 mg/kg",37.1 ± 16.0%
same,Glomerulosclerosis Grade (%): III,"[1]; 12 wk after ad., 7.5 mg/kg",51.4 ± 8.6%
same,Glomerulosclerosis Grade (%): IV,"[1]; 12 wk after ad., 7.5 mg/kg",13.8 ± 20.6%
same,Glomerulosclerosis Total Grade,"[1]; 12 wk after ad., 7.5 mg/kg",8.6 ± 1.9
same,Glomerulosclerosis Grade (%): 0,"[1]; 12 wk after ad., 15 mg/kg",0%
same,Glomerulosclerosis Grade (%): I,"[1]; 12 wk after ad., 15 mg/kg",8.1 ± 14.1%
same,Glomerulosclerosis Grade (%): II,"[1]; 12 wk after ad., 15 mg/kg",38.1 ± 27.4%
same,Glomerulosclerosis Grade (%): III,"[1]; 12 wk after ad., 15 mg/kg",46.2 ± 26.1%
same,Glomerulosclerosis Grade (%): IV,"[1]; 12 wk after ad., 15 mg/kg",9.1 ± 12.6%
same,Glomerulosclerosis Total Grade,"[1]; 12 wk after ad., 15 mg/kg",7.7 ± 1.7
same,Glomerulosclerosis Grade (%): 0,"[1]; 12 wk after ad., 30 mg/kg",0%
same,Glomerulosclerosis Grade (%): I,"[1]; 12 wk after ad., 30 mg/kg",2.0 ± 4.5%
same,Glomerulosclerosis Grade (%): II,"[1]; 12 wk after ad., 30 mg/kg",71.3 ± 11.5 %
same,Glomerulosclerosis Grade (%): III,"[1]; 12 wk after ad., 30 mg/kg",26.7 ± 7.8 %
same,Glomerulosclerosis Grade (%): IV,"[1]; 12 wk after ad., 30 mg/kg",0%
same,Glomerulosclerosis Total Grade,"[1]; 12 wk after ad., 30 mg/kg",6.7 ± 0.2
same,"number of grade III glomerulus, compared with the model group","[1]; 16 weeks after nephrectomy (12 weeks since administration), compound 149 30 mg/kg (P<0.01), Losartan 10 mg/kg/day (P<0.05)",less than that of the model group significantly
same,"affection with the major organs such as heart, liver, spleen, and lungs (pathological results)","[1]; rat, in vivo",no significant affection
same,improvement of each biochemical index compared with the positive controls,[2]; UUO rats,"more significant than those of the Losartan group, and equivalent to those of the Benazepril group"
same,inflammatory cell infiltration and tubulointerstitial fibrosis (pathological changes),[2]; UUO rats,significantly attenuated
same,pathological results compared with the positive controls,[2]; UUO rats,better than Benazepril and equivalent with Losartan
same,BUN,"[2]; UUO rats, 5.0 mg/kg",23.71 ± 4.17 mg/dL
same,Scr. (serum creatinine),"[2]; UUO rats, 5.0 mg/kg",1.58 ± 0.49 mg/kg
same,BUN,"[2]; UUO rats, 10.0 mg/kg",20.76 ± 1.56 mg/dL
same,Scr. (serum creatinine),"[2]; UUO rats, 10.0 mg/kg",1.61 ± 0.36 mg/kg
same,BUN,"[2]; UUO rats, 20.0 mg/kg",20.77 ± 2.04 mg/dL
same,Scr. (serum creatinine),"[2]; UUO rats, 20.0 mg/kg",1.60 ± 0.14 mg/kg
same,overall result in the renal interstitial fibrosis model compared with the positive controls,[2]; unilateral ureteral ligation in rats,better than Benazepril and corresponds to (slightly better than) Losartan
same,death,"[3]; 5 g/kg and 10 g/kg, observed for 14 days",no death
same,increase of average body weights at 14th day after administration,"[3]; oral once, 5 g/kg",7 g
same,Body weights of 48 hours after administration,"[3]; oral once, 5 g/kg and 10 g/kg",no different
same,increase of average body weights at 14th day after administration,"[3]; oral once, 10 g/kg",5 g
same,mutagenesis (Ames test result),[4],no mutagenesis; also recorded: negative
same,"number of colony formation of Salmonella Typhimurium TA97, TA98, TA100 and TA102",[4],did not increase
